One assay concerns the target T1, PI3K p110α (Homo sapiens, UniProt P42336).
T1 construct: purchased Reaction Biology Corporation (RBC) Malvern, Pa
Put plainly: PI3K isoform inhibition in vitro, p110α. It is filed as biochemical. The conditions noted are these: class I PI3K isoform α. An excerpt: (§1) A PI3K assay can be used to evaluate the activity of the prototype molecule. Reaction Biology Corporation (RBC) Malvern, Pa. offers Class I PI3Ks (PI3Kα, PI3Kβ, PI3Kγ, and PI3Kδ). The PIP3 product is detected by displacement of biotin-PIP3 from an energy transfer complex consisting of Europium labeled anti-GST monoclonal antibody, a GST-tagged pleckstrin homology (PH) domain, biotinylated PIP3 and Streptavidin-Allophycocyanin (APC). Excitation of Europium in the complex results in an energy transfer to the APC and a fluorescent emission at 665 nm. The PIP3 product formed displaces biotin-PIP3 from the complex resulting in a loss of energy transfer and thus a decrease in signal.

The next assay deals with T2, PI3K p110γ (Homo sapiens, UniProt P48736).
T2 construct: purchased Reaction Biology Corporation (RBC) Malvern, Pa
Put plainly: PI3K isoform inhibition in vitro, p110γ. It is filed as biochemical. The conditions noted are these: class I PI3K isoform γ.
Excerpt: as §1

Another assay concerns the target T3, PI3K p110δ (Homo sapiens, UniProt O00329).
T3 construct: purchased Reaction Biology Corporation (RBC) Malvern, Pa
Put plainly: PI3K isoform inhibition in vitro, p110δ. It is filed as biochemical. The conditions noted are these: class I PI3K isoform δ.
Excerpt: as §1

In another assay the target is T4, PI3K p110β (Homo sapiens, UniProt P42338).
T4 construct: purchased Reaction Biology Corporation (RBC) Malvern, Pa
Put plainly: PI3K isoform inhibition in vitro, p110β. The conditions noted are these: class I PI3K isoform β. It is filed as biochemical.
Excerpt: as §1

For another assay, the system named is influenza virus. Put plainly: In vitro anti-viral assay in A549 cells (plaque assay, viral mRNA). The assay is classed as cell-based.
The test system of assay [1] is virulent influenza virus strain. The arrangement: species or system mice. The conditions noted are these: mouse, in vivo.

T2 sequence (P48736 whole entry): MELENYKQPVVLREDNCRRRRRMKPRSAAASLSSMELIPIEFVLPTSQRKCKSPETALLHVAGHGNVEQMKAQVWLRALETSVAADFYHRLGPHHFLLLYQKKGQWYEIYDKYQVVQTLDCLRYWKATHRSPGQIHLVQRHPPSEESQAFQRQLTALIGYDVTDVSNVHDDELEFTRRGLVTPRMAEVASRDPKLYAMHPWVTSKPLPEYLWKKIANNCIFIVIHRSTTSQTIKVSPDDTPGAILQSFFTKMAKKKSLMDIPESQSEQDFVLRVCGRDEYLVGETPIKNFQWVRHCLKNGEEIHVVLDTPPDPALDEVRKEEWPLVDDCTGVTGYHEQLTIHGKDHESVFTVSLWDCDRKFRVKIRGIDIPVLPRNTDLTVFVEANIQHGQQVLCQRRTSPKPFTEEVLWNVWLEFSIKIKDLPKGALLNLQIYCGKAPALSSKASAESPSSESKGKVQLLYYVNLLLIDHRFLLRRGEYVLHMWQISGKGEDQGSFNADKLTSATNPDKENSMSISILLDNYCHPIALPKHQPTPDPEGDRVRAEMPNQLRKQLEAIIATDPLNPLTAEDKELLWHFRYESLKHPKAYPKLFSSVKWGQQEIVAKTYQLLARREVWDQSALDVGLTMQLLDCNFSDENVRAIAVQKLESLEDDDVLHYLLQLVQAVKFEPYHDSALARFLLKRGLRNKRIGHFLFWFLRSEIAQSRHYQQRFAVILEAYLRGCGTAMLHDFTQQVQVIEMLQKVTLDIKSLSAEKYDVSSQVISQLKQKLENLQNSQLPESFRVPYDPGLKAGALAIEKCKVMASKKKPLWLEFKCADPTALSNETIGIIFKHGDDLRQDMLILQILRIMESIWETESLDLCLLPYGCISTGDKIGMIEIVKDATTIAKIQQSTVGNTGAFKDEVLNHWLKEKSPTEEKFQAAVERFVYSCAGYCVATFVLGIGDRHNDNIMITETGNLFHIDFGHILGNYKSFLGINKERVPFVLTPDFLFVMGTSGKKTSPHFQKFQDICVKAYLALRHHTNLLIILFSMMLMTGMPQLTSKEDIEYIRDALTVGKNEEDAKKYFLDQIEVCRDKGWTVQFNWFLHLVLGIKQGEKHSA
T1 sequence (P42336 whole entry): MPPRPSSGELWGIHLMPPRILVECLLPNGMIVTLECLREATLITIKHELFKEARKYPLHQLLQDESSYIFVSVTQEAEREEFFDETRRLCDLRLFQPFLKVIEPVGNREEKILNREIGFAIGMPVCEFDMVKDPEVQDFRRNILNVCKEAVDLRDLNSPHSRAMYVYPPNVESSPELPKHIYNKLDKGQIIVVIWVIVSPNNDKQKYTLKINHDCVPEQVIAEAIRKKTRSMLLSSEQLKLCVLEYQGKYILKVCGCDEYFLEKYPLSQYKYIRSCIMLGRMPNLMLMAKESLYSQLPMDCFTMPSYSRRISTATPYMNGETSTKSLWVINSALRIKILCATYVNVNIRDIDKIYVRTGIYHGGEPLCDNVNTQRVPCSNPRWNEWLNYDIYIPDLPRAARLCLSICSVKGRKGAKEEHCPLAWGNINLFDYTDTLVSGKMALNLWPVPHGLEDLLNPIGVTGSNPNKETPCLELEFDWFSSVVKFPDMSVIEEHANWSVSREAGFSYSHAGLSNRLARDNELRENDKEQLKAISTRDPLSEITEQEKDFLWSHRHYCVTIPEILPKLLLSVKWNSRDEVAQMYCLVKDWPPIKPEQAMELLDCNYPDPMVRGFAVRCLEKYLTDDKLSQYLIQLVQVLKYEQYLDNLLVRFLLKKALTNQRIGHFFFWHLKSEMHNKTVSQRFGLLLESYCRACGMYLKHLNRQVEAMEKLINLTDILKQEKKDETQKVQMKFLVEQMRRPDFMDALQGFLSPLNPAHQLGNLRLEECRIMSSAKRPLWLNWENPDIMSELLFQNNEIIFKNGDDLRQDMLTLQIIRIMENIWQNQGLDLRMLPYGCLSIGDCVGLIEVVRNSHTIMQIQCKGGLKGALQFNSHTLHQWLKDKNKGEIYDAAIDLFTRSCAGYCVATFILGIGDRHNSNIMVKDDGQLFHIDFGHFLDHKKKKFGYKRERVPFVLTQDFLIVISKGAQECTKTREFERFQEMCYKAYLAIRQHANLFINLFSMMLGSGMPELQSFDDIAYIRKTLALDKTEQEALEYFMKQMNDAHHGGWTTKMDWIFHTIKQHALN
T1 sequence (P27986 whole entry partner): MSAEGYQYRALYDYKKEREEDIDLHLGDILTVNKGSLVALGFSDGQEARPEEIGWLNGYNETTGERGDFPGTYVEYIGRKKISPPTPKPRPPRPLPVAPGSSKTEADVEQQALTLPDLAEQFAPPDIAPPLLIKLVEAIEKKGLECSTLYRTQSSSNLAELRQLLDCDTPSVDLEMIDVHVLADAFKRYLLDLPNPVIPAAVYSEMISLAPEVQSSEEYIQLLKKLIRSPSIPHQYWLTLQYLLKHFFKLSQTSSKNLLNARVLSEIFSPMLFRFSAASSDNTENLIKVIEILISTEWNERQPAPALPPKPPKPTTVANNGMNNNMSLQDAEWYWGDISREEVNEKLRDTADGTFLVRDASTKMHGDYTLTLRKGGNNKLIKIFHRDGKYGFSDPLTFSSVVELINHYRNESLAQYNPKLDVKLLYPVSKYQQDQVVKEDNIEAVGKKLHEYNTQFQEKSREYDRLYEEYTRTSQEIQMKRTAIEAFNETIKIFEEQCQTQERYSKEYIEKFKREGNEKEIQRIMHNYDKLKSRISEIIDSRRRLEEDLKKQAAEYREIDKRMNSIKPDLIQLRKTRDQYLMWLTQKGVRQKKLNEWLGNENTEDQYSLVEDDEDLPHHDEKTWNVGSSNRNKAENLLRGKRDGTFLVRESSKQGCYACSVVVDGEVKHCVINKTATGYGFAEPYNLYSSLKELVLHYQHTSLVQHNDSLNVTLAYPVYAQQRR
T3 sequence (O00329 whole entry): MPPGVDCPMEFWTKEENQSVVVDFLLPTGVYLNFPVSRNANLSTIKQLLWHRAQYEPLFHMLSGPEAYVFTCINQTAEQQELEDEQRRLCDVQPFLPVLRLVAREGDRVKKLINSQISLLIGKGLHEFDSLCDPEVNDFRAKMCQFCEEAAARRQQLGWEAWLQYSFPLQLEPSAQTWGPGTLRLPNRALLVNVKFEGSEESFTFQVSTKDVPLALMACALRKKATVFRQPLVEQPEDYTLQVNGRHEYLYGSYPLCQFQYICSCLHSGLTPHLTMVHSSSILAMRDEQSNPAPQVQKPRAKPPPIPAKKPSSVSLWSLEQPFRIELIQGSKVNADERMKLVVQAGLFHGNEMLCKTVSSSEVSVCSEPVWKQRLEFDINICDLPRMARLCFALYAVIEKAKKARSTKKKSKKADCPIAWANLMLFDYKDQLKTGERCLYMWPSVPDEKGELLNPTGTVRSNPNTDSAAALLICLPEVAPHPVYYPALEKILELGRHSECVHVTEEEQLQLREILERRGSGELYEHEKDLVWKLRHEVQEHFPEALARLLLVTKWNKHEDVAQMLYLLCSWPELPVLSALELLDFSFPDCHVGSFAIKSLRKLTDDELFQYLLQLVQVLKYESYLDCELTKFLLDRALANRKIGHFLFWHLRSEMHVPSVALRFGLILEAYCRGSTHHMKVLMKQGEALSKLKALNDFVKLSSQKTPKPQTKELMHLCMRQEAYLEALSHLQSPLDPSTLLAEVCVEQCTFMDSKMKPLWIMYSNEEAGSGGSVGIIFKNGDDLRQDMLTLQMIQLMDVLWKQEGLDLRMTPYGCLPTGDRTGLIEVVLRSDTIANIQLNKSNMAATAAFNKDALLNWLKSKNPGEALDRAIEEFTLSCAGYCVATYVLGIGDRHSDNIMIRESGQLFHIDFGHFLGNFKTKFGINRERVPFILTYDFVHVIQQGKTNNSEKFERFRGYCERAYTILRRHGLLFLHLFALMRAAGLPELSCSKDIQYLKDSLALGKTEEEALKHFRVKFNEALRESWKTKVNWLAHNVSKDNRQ
T3 sequence (P27986 whole entry partner): as the sequence (P27986 whole entry partner) above
T4 sequence (P42338 whole entry): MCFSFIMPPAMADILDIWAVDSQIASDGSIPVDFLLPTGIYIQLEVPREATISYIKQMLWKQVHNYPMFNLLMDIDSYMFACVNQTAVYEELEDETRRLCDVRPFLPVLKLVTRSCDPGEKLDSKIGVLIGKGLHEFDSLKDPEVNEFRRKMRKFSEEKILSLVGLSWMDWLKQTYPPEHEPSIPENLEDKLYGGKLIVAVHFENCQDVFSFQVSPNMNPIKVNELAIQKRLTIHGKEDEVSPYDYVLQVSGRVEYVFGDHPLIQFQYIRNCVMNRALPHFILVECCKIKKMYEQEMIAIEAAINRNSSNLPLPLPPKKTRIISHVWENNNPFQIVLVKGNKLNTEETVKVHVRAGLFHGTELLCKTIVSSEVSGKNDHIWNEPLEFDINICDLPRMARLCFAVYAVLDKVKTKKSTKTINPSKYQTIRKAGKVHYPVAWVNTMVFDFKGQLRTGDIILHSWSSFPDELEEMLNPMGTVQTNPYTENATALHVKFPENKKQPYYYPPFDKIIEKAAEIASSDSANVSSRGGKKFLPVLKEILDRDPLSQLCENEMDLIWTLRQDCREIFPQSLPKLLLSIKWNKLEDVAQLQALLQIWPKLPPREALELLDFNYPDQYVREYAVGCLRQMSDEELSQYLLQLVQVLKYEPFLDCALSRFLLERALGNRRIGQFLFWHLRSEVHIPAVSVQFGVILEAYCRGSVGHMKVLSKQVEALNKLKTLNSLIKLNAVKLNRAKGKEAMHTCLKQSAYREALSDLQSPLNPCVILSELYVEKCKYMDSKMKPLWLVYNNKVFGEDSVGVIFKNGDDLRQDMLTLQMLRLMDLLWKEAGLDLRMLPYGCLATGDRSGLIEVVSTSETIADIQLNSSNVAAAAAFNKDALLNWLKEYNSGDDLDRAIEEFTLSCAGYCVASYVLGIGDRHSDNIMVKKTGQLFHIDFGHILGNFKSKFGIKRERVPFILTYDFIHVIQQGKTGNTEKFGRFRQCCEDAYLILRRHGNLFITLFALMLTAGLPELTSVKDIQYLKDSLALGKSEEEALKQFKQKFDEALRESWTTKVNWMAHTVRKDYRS
T4 sequence (P27986 whole entry partner): as the sequence (P27986 whole entry partner) above

Turning to `Cc1ccccc1-c1nc2ncccc2cc1Cn1cnc2c(N)ncnc21` [compound 7b, 9-((2-(2-methylphenyl)-1,8-naphthyridin-3-yl)methyl)-9H-purin-6-amine], the IC50 (usually the concentration that inhibits the measured activity by half) against PI3K p110α was greater than 100 µM; at PI3K p110γ, 40 µM; against PI3K p110δ it was 1.3 µM; against PI3K p110β, greater than 100 µM.

Consider `Cc1ccccc1-n1c(Cn2cnc3c(N)ncnc32)nc2cccc(C)c2c1=O` [IC87114], for which, in the assay with influenza virus, the “viral replication in A549 lung epithelial cells” value is “decreased”. For the same compound, in assay [1], the “protection from lethal challenge” value is given as “protected animals from lethal challenge”.

The values are drawn from US20150011569A1, “NOVEL P13K p110 INHIBITORS AND METHODS OF USE THEREOF” (PHILADELPHIA HEALTH & EDUCATION CORPORATION d/b/a Drexel …, priority 2011, published 2015).
